Experimental data as given in patent US11992488B2, “Vasoconstriction compositions and methods of use” (Eye Therapies, LLC, priority 2008, dated 2024).
Like-named read-outs stand apart in the source and are kept apart here.

Legend:
[1] = test system: patient with an ocular condition; conditions: brimonidine at 0.01% to […] vs tetrahydrozoline 0.05%, oxymetazoline […], naphazoline […]; one patient, baseline redness 4/4
Text: In an average clinical situation, baseline redness is at 1-1.5/4.

under-responders = conditions: of 100 Subjects (under-responders)
over-responders [2] = conditions: of 100 Subjects (over-responders)
[3] = test system: patients with chronic red eyes; test: Example 5: chronic red eyes, patient satisfaction assessment; format: in vivo, human; conditions: eld brimonidine at […], drops twice a day for three to five weeks, seven patients
Procedure: The treatment was through drops twice a day for three to five weeks. At the end, patient satisfaction assessment was conducted.

[4] = test system: over-responders wearing contact lenses; conditions: 0.008% brimonidine while wearing contact lenses, of 100 Subjects (over-responders)
Text: Contact lenses provide a reservoir to the surface of the eye allowing drugs to remain longer on the eye and increase their effectiveness.

[5] = FIG. 2
[6] = test system: patient with an ocular condition of moderate hyperemia; test: FIGS. 5A-C: reversal of pre-induced rebound hyperemia; format: in vivo, human; conditions: brimonidine at […], right eye after VISINE Original, FIG. 5C
Text: FIG. 5A is a baseline visual appearance of two eyes of a patient with an ocular condition.

over-responders [7] = conditions: contact lenses soaked in 0.008% brimonidine, of 100 Subjects (over-responders)
Text: Contact lenses are often provided as daily wear lenses stored in a blisterpack solution.

[8] = 0.037% brimonidine after wash-out

Brc1c(N=C2NCCN2)ccc2nccnc12.O=C(O)C(O)C(O)C(=O)O [brimonidine, 5-bromo-6-(2-imidazolidinylideneamino) quinoxaline L-tartrate]
scleral whitening brightening effects [1]: significant scleral whitening brightening effects | Reduced Redness (under-responders; [8]): 95 | Whitening (under-responders; [8]): 95 | Reduced Redness (under-responders; […] brimonidine): 35 | Whitening (under-responders; […] brimonidine): 35 | Reduced Redness (over-responders [2]; […] brimonidine after wash-out): 95 | Whitening (over-responders [2]; […] brimonidine after wash-out): 95 | Reduced Redness (over-responders [2]; […] brimonidine): 85 | Whitening (over-responders [2]; […] brimonidine): 85 | patient-reported redness [3]: All patients reported reduced redness | Reduced Redness [4]: 95 | Whitening [4]: 95 | concentration at which intraocular pressure reduction is at its maximum [5]: about 0.09% | reversal of induced rebound hyperemia [6]: reversing the VISINE Original® induced rebound hyperemia | Reduced Redness (over-responders [7]): 95 | Whitening (over-responders [7]): 95
